Data taken from patent US20030198617A1, “Pharmaceutical tryptophan containing dipeptide compositions and methods of use thereof” (priority 1993, published 2003).

Tests used:
Assay type in all cases: in vivo, human
[1] = Bone fractures
Protocol: Ile-Trp is applied to patients with bone fractures of various origin, type and localization. Ile-Trp is administered intramuscularly or intranasally single daily at […] for 10 days.
The control group comprised 28 patients.

[2] = Sinus disease patients (Examples 14, 63); conditions: 3-10 days
Excerpt: The decrease of treatment duration up to 1.7 times compared to controls.

[3] = Deformity and scarring after injuries
[4] = tested on: herpetic lesions; test: Recurrent herpetic lesions; conditions: for recurrence of herpetic lesions: IM or intranasally
[5] = tested on: AIDS; test: AIDS infected and immunosuppressed individuals
[6] = Cutaneous burns
Protocol: Patients with cutaneous burns are treated with Ile-Trp either IM or intranasally.

[7] = Eye problems, with conventional treatment
Protocol: Patients with various eye problems are treated by conventional methods, with one group receiving Ile-Trp in addition to the conventional treatment.

[8] = Female patients with pelvic inflammatory diseases, cervicitis, vaginitis, abscesses
Protocol: Female patients with the various disorders (pelvic inflammatory diseases, cervicitis, vaginitis and various tubo-ovarian and adnexal abscesses) are treated and some patients are used as controls. Ile-Trp is applied IM, intranasally at 100 μg 5 consecutive days or 50 μg intralymphatically for 5 consecutive days in conjunction with conventional therapy. […] The normalization of immune status correlates with clinical improvements.
The normalization of immune status correlated with clinical improvements.

[9] = Frostbite to the extremities
Protocol: Patients with frostbite to the extremities are treated with Ile-Trp either IM or intranasally.

[10] = tested on: viral infection; test: Acute respiratory disease patients
Protocol: Patients with acute respiratory disease, including upper airway diseases, such as colds, are treated with Ile-Trp. […] Secondary infectious complications are diminished, and the duration of the treatment is also diminished.
There was noted a decrease in the specific signs of upper respiratory infections such rhinorrhea, sore throat, fever, muscle aches, headaches, and ear pain. Secondary infectious complications were diminished, and the duration of the treatment was also diminished.

[11] = Psoriasis patients; conditions: 10 days
Protocol: Patients with psoriasis are treated with Ile-Trp and some patients are used as controls.
All patients had at a least 5 year history of […] treatment.

[12] = Lymphangitis
[13] = tested on: leprosy; test: Leprosy (Hansen's disease)
[14] = Acne vulgaris patients
Excerpt: A number of patients within the group patients afflicted with furunculitis, pyoderma, cellulitis, and folliculitis are afflicted with acne vulgaris and acne. […] The clinical outcome correlates with the correction of immunological indices, and relapses are controlled.
A number of patients within the group of 159 patients afflicted with furunculitis, pyoderma, cellulitis, and folliculitis were afflicted with acne vulgaris and acne. […] The clinical outcome correlated with the correction of immunological indices, and relapses were controlled.

[15] = Pregnant women (Examples 34, 87)
Protocol: Ile-Trp is administered to pregnant women. The route of administration is IM or intranasally 100 μg daily for 5-10 days.
The route of administration is IM or intranasally 100 μg daily for 5-10 days. […] It was also noted that there was a decrease in fetal hypoxia.

[16] = Patients with various allergies
[17] = Patients subjected to skin grafting
Protocol: Ile-Trp is administered to patients subjected to skin grafting. Ile-Trp is administered IM or intranasally single daily at 50-100 μg for 5 days.
The control group comprised 27 patients. […] In control group the manifestations of rejection were determined in 8 patients.

[18] = Gingival disease patients
Protocol: Patients are treated for gingival disease by subcutaneous administration of Ile-Trp in the area of the gingiva. […] Administration of 100 μg IM, subcutaneously, or by electrophoresis (whereby a small voltage charge to the gums results in a rapid transfer of medication through the gum epithelium) results in the arresting of bleeding, more rapid restoration of inflammatory processes, and the decrease of purulent discharge. The treatment results in fewer recurrences and prolongation of normal gums.

[19] = Antibiotic-treated patients with unfavorable allergological history
Protocol: Ile-Trp is applied in patients treated with antibiotics for various indications who have unfavorable allergological history. Ile-Trp is administered IM or intranasally single daily at 100 μg for 5-10 days.
Control group comprised 43 patients.

[20] = IM862 100 μg IM or intranasally

With Ile-Trp the consolidation of fractures ([1]; Ile-Trp, 10 days) was “accelerates essentially”, the clinical effect ([2]; Ile-Trp 1 μg/kg) was “normalization of nasal breathing” and the clinical effect ([3]; Ile-Trp IM or intranasally) was “less deformity and scarring”. For the same substance, the “recurrence of herpetic lesions” value ([4]; Ile-Trp topically) was “marked reduction of recurrence of herpetic lesions”, the “immunologic indices, T-cell functional activity, T4/T8 ratios” value ([5]; Ile-Trp, AIDS infected individuals) was “restoring normal immunologic indices” and the immunological indices ([5]; Ile-Trp, immunosuppressed individuals with radiation injuries) was “excellent restoration of immunological indices”. The clinical effect ([6]; Ile-Trp IM or intranasally) was “Accelerated wound healing, diminished frequency of infections, and less eschar”, the clinical effect ([7]; Ile-Trp intra ocularly 18 μg 5 days or drops) was “more rapid arresting of the inflammatory process” and the clinical effect ([8]; Ile-Trp with conventional therapy) was “arresting of pain syndrome”. For the same substance, the clinical effect ([9]; Ile-Trp IM or intranasally) was “Rapid healing and restoration of tissue integrity”, the clinical effect ([10]; Ile-Trp 100 μg 3-7 days) was “milder course of the viral infection” and the clinical effect ([11]; Ile-Trp 100 μg IM or intranasally) was “improvement in most of the patients, and total recovery in some of the patients”. For the same substance, the clinical effect ([12]; Ile-Trp 100 μg) was “controls the advance of lymphangitis”, the clinical effect ([13]; Ile-Trp 100 μg 5 days with conventional therapy) was “resolution of the lesions” and the immunological indices ([14]; Ile-Trp group) was “corrected and normalized rapidly”. The clinical effect ([15]; Ile-Trp 100 μg daily 5-10 days) was “resolution of weakness, dizziness, and increased appetite”, the clinical effect ([16]; Ile-Trp 1 μg/kg 5-7 days) was “disappearance of allergic reactions” and the “infectious complications and graft rejection” value ([17]; Ile-Trp 50-100 μg 5 days) was “prevents the arising of infections complications and graft rejection”. The clinical effect ([18]; Ile-Trp, subcutaneous in the gingiva) was “arresting of gingival disease” and the “allergic reactions to antibiotics” value ([19]; Ile-Trp 100 μg 5-10 days) was “prevents the arising of allergic reactions”.

For Glu-Trp [IM862], the consolidation of fractures ([1]; IM862, 10 days, 44 patients) was “accelerated essentially”, the “decrease of treatment duration compared to controls” value ([2]; IM862 1 μg/kg) was “up to 1.7 times” and the clinical effect ([2]; IM862 1 μg/kg, 51 patients) was “normalization of nasal breathing”. For the same substance, the clinical effect ([3]; IM862 IM or intranasally) was “less deformity and scarring”, the “outbreaks per year after treatment” value ([4]; IM862 in combination with interferon, 7-10 outbreaks per year before) was “less than one outbreak per year” and the “recurrence of herpetic lesions” value ([4]; IM862 topically) was “marked reduction of recurrence of herpetic lesions”. The immunological indices ([5]; IM862, immunosuppressed individuals with radiation injuries) was “excellent restoration of immunological indices”, the “comparison with TPI as cell mediator” value ([5]; IM862 vs TPI) was “far more effective cell mediator” and the clinical effect ([6]; IM862 IM or intranasally, 23 patients) was “Accelerated wound healing, diminished frequency of infections, and less eschar”. For the same substance, the clinical effect ([7]; IM862 intra ocularly 18 μg 5 days or drops, 41 patients) was “more rapid arresting of the inflammatory process”, the clinical effect ([8]; IM862 with conventional therapy, 46 patients) was “arresting of pain syndrome” and the clinical effect ([9]; IM862 IM or intranasally, 17 patients) was “rapid healing and restoration of tissue integrity”. For the same substance, the clinical effect ([10]; IM862 100 μg 3-7 days, 186 patients) was “milder course of the viral infection”, the “significant improvement, share of patients” value [11, 20] was 60% and the “total recovery, share of patients” value [11, 20] was 33%. For the same substance, the “improvement, share of patients” value ([11]; IM862 100 μg IM or intranasally, 30 patients) was 7%, the clinical effect ([12]; IM862 100 μg) was “controls the advance of lymphangitis” and the clinical effect ([13]; IM862 100 μg 5 days with conventional therapy, 45 patients) was “resolution of the lesions”. The immunological indices ([14]; IM862 group) was “corrected and normalized rapidly”, the clinical effect ([15]; IM862 100 μg daily 5-10 days, 34 women) was “resolution of weakness, dizziness, and increased appetite” and the clinical effect ([16]; IM862 1 μg/kg 5-7 days, 29 patients) was “disappearance of allergic reactions”. The “infectious complications and graft rejection” value ([17]; IM862 50-100 μg 5 days, all 17 patients) was “prevented the arising of infections complications and graft rejection”, the clinical effect ([18]; IM862, subcutaneous in the gingiva) was “arresting of gingival disease” and the “allergic reactions to antibiotics” value ([19]; IM862 100 μg 5-10 days, 76 patients, majority of cases) was “prevented the arising of allergic reactions”.
